From patent publication US10087188B2, “Benzamide imidazopyrazine Btk inhibitors” (MERCK SHARP & DOHME CORP., priority 2014, dated 2018)
pIC50: −log10 of the molar value.

The compounds below were run on HeLa cells (assay: [3H] Adenosine uptake assay). Conditions: Homo sapiens, HeLa, accumulation of tritiated adenosine into HeLa cells; compound concentration range 10 μM to 0.032 nM; read-out: ADU inhibition IC50 (adenosine uptake inhibition potency).
Format: cell-based
Description: Compounds are also screen in an adenosine uptake functional cellular assay using the protocol described below:
[^3H] Adenosine Uptake Assay Methods
Adenosine uptake activity was determined by monitoring the accumulation of tritiated adenosine into HeLa cells (ATCC catalog #CCL-2) using a PMT-based radiometric detection instrument. […] These cells were incubated overnight at 37° C. in a humidified atmosphere with 5% (v/v) CO2. After this time the growth medium was removed and replaced with 40 μL assay medium comprising: Hanks balanced salts solution (HBSS; Thermo Fisher Catalog #SH30268.01)+5% (v/v) FBS. Compound stock solutions in DMSO were diluted in assay medium to 2.5× final compound concentration maintaining a constant DMSO concentration of 0.25% (v/v). 40 μL of compound in assay medium was dispensed into individual wells of the Cytostar-T plates and the plates were incubated for 30 minutes under ambient laboratory conditions. Following this incubation, 20 μL of 500 nM[^3H] adenosine (American Radiolabeled Chemicals Inc. Catalog #ART0287) in assay medium was added and incubated for a further 60 minutes under ambient laboratory conditions. The amount of radiolabel accumulation was then determined using a Perkin Elmer Topcount NXT microplate reader. In brief, HeLa cells adhere to the bottom of the Cytostar-T plate, uptake of [^3H]adenosine into these cells brings the radiolabel into sufficient proximity to excite the scintillant in the base of the plates. These events are captured by single PMT, time-resolved coincidence counting. IC50 values were determined by 4 parameter robust fit of counts per second values vs. (Log10) compound concentrations.

| SMILES | pIC50 |
| --- | --- |
| Nc1nccn2c([C@@H]3CC[C@@H](CC(=O)O)C3)nc(-c3ccc(C(=O)Nc4cc(C(F)(F)F)ccn4)cc3)c12 [Example 55, {(1R,3R)-3-[8-amino-1-(4-{[4-(trifluoromethyl)pyridin-2-yl]carbamoyl}phenyl)imidazo[1,5-a]pyrazin-3-yl]cyclopentyl}acetic acid] | 5.10 |

Same assay, conditions: Homo sapiens; accumulation of tritiated adenosine into HeLa cells; compound concentration range 10 μM to 0.032 nM; read-out: ADU inhibition IC50 (adenosine uptake inhibition potency)

| SMILES | pIC50 |
| --- | --- |
| Nc1nccn2c([C@H]3C[C@@H]4[C@H](C3)[C@H]4C(=O)O)nc(-c3ccc(C(=O)Nc4cc(C(F)(F)F)ccn4)cc3)c12 [Example 139, (1R,3R,5S,6r)-3-[8-amino-1-(4-{[4-(trifluoromethyl)pyridin-2-yl]carbamoyl}phenyl)imidazo[1,5-a]pyrazin-3-yl]bicyclo[3.1.0] hexane-6-carboxylic acid] | 5.00 |
| C[C@@]1(C(=O)O)CC[C@H](c2nc(-c3ccc(C(=O)Nc4cc(C(F)(F)F)ccn4)cc3)c3c(N)nccn23)C1 [Example 40, (1R,3S)-3-[8-amino-1-(4-{[4-(trifluoromethyl)pyridin-2-yl]carbamoyl}phenyl)imidazo[1,5-a]pyrazin-3-yl]-1-methylcyclopentane-carboxylic acid] | 5.28 |
| CC(C)[C@H]1CC[C@@H](c2nc(-c3ccc(C(=O)Nc4cc(C(F)(F)F)ccn4)cc3)c3c(N)nccn23)C[C@H]1C(=O)O [Example 99, (1R,2R,5R)-5-[8-amino-1-(4-{[4-(trifluoromethyl)pyridin-2-yl]carbamoyl}phenyl)imidazo[1,5-a]pyrazin-3-yl]-2-(1-methylethyl) cyclohexane-carboxylic acid] | 5.60 |
| Nc1nccn2c([C@@H]3C[C@@H]4[C@H](C3)[C@@H]4C(=O)O)nc(-c3ccc(C(=O)Nc4cc(C(F)(F)F)ccn4)cc3)c12 [Example 124, (1R,3r,5S,6s)-3-[8-amino-1-(4-{[4-(trifluoromethyl)pyridin-2-yl]carbamoyl}phenyl)imidazo[1,5-a]pyrazin-3-yl]bicyclo[3.1.0] hexane-6-carboxylic acid] | 5.21 |
| Nc1nccn2c([C@H]3CC[C@@H](C(=O)O)C3)nc(-c3ccc(C(=O)Nc4cc(C(F)(F)F)ccn4)cc3)c12 [Example 14, (1R,3S)-3-(8-amino-1-(4-((4-(trifluoromethyl)pyridin-2-yl)carbamoyl)phenyl)imidazo[1,5-a]pyrazin-3-yl)cyclopentanecarboxylic acid] | 5.60 |
| C[C@]1(C(=O)O)CC[C@@H](c2nc(-c3ccc(C(=O)Nc4cc(C(F)(F)F)ccn4)cc3)c3c(N)nccn23)C1 [Example 37, (1S,3R)-3-[8-amino-1-(4-{[4-(trifluoromethyl)pyridin-2-yl]carbamoyl}phenyl)imidazo[1,5-a]pyrazin-3-yl]-1-methylcyclopentane-carboxylic acid] | 5.07 |
| C[C@]1(C(=O)O)CCC[C@@H](c2nc(-c3ccc(C(=O)Nc4cc(C(F)(F)F)ccn4)cc3)c3c(N)nccn23)C1 [Example 154, (1S,3R)-3-[8-amino-1-(4-{[4-(trifluoromethyl)pyridin-2-yl]carbamoyl}phenyl)imidazo[1,5-a]pyrazin-3-yl]-1-methylcyclohexane-carboxylic acid] | 5.00 |
| CC(C)[C@@]1(C(=O)O)CC[C@H](c2nc(-c3ccc(C(=O)Nc4cc(C(F)(F)F)ccn4)cc3)c3c(N)nccn23)C1 [Example 48, (1R,3S)-3-[8-amino-1-(4-{[4-(trifluoromethyl)pyridin-2-yl]carbamoyl}phenyl)imidazo[1,5-a]pyrazin-3-yl]-1-(1-methylethyl) cyclopentane-carboxylic acid] | 5.42 |
| Nc1nccn2c([C@H]3C[C@@H]4[C@H](C3)[C@@H]4C(=O)O)nc(-c3ccc(C(=O)Nc4cc(C(F)(F)F)ccn4)cc3)c12 [Example 140, (1R,3r,5S,6s)-3-[8-amino-1-(4-{[4-(trifluoromethyl)pyridin-2-yl]carbamoyl}phenyl)imidazo[1,5-a]pyrazin-3-yl]bicyclo[3.1.0] hexane-6-carboxylic acid] | 5.00 |
| CC(C)[C@]1(C(=O)O)CC[C@H](c2nc(-c3ccc(C(=O)Nc4cc(C(F)(F)F)ccn4)cc3)c3c(N)nccn23)C1 [Example 49, (1S,3S)-3-[8-amino-1-(4-{[4-(trifluoromethyl)pyridin-2-yl]carbamoyl}phenyl)imidazo[1,5-a]pyrazin-3-yl]-1-(1-methylethyl) cyclopentane-carboxylic acid] | 6.04 |
| Nc1nccn2c([C@@H]3C[C@@H]4[C@H](C3)[C@H]4C(=O)O)nc(-c3ccc(C(=O)Nc4cc(C(F)(F)F)ccn4)cc3)c12 [Example 125, (1R,3R,5S,6r)-3-[8-amino-1-(4-{[4-(trifluoromethyl)pyridin-2-yl]carbamoyl}phenyl)imidazo[1,5-a]pyrazin-3-yl]bicyclo[3.1.0]hexane-6-carboxylic acid] | 5.57 |
| CC(C)[C@]1(C(=O)O)CCC[C@@H](c2nc(-c3ccc(C(=O)Nc4cc(C(F)(F)F)ccn4)cc3)c3c(N)nccn23)C1 [Example 89, (1S,3R)-3-[8-amino-1-(4-{[4-(trifluoromethyl)pyridin-2-yl]carbamoyl}phenyl)imidazo[1,5-a]pyrazin-3-yl]-1-(1-methylethyl) cyclohexane-carboxylic acid] | 5.47 |
| CC(C)[C@]1(C(=O)O)CC[C@@H](c2nc(-c3ccc(C(=O)Nc4cc(C(F)(F)F)ccn4)cc3)c3c(N)nccn23)C1 [Example 46, (1S,3R)-3-[8-amino-1-(4-{[4-(trifluoromethyl)pyridin-2-yl]carbamoyl}phenyl)imidazo[1,5-a]pyrazin-3-yl]-1-(1-methylethyl) cyclopentane carboxylic acid] | 5.40 |
| Nc1nccn2c1c(-c1ccc(C(=O)Nc3cc(C(F)(F)F)ccn3)cc1)nc2[C@H]1CC[C@@H](C(=O)O)CC1 [Example 158, cis-4-[8-amino-1-(4-{[4-(trifluoromethyl)pyridin-2-yl]carbamoyl}phenyl)imidazo[1,5-a]pyrazin-3-yl]cyclohexane-carboxylic acid] | 5.00 |

What follows are compounds tested against BTK enzyme (recombinant full-length BTK, hBTK) (Homo sapiens (Human), UniProt Q06187) (assay: Btk enzyme activity assay, LANCE TR-FRET). Conditions: 50 pM hBTK, 2 μM biotin-A5-peptide, 25 μM ATP; 60 minute compound & enzyme incubation; read-out: BTK binding IC50.
Chain of BTK enzyme (recombinant full-length BTK, hBTK) (Q06187 whole entry): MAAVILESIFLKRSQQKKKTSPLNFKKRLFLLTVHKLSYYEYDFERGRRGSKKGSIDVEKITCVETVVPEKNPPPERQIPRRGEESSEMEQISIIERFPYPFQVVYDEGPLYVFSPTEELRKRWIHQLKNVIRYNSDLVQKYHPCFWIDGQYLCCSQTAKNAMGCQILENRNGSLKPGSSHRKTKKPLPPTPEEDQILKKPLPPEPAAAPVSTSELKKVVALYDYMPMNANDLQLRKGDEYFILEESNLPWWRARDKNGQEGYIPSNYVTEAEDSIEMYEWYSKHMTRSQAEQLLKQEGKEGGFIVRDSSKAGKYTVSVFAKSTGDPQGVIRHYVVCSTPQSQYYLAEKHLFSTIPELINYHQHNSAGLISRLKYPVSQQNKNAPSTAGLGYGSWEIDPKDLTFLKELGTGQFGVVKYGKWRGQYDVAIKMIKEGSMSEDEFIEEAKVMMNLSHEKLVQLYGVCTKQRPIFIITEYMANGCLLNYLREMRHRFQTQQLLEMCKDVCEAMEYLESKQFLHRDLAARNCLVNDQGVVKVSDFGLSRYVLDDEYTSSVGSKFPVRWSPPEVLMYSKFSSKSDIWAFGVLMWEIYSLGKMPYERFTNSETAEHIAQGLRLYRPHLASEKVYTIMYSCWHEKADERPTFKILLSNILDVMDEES
Format: biochemical
Description: Btk Enzyme Activity Assay Methods
BTK enzymatic activity was determined with the LANCE (Lanthanide Chelate Excite) TR-FRET (Time-resolved fluorescence resonance energy transfer) assay. […] After 60 minutes incubation with detection reagents, reaction plates were read on a PerkinElmer EnVision plate reader using standard TR-FRET protocol.

| SMILES | pIC50 |
| --- | --- |
| C[C@]1(C(=O)O)CCC[C@@H](c2nc(-c3ccc(C(=O)Nc4cc(C5CC5)ccn4)cc3)c3c(N)nccn23)C1 [Example 155, (1S,3R)-3-(8-amino-1-{4-[(4-cyclopropylpyridin-2-yl)carbamoyl]phenyl}imidazo[1,5-a]pyrazin-3-yl)-1-methylcyclohexane-carboxylic acid] | 8.55 |
| Nc1nccn2c([C@H]3CCN[C@@H](C(=O)O)C3)nc(-c3ccc(C(=O)Nc4cc(C(F)(F)F)ccn4)cc3)c12 [Example 31, (2R,4S)-4-[8-amino-1-(4-{[4-(trifluoromethyl)pyridin-2-yl]carbamoyl}phenyl)imidazo[1,5-a]pyrazin-3-yl]piperidine-2-carboxylic acid] | 8.59 |
| Nc1nccn2c([C@@H]3CCC[C@H](C(=O)O)C3)nc(-c3ccc(C(=O)Nc4cc(C5CC5)ccn4)cc3)c12 [Example 8, (1S,3R)-3-(8-amino-1-{4-[(4-cyclopropyl-pyridin-2-yl)carbamoyl]phenyl}imidazo [1,5-a]pyrazin-3-yl)cyclohexane-carboxylic acid] | 8.68 |
| Nc1nccn2c([C@H]3CN(C(=O)C4(C(=O)O)CCC4)CCO3)nc(-c3ccc(C(=O)Nc4cc(C(F)(F)F)ccn4)cc3F)c12 [Example 178, 1-({(2R)-2-[8-amino-1-(2-fluoro-4-{[4-(trifluoromethyl)pyridin-2-yl]carbamoyl}phenyl)imidazo [1,5-a]pyrazin-3-yl]morpholin-4-yl}carbonyl)cyclobutane-carboxylic acid] | 8.07 |
| COc1cc(C(=O)Nc2cc(C(F)(F)F)ccn2)ccc1-c1nc([C@@H]2CCC[C@H](C(=O)O)C2)n2ccnc(N)c12 [Example 11, (1S,3R)-3-[8-amino-1-(2-methoxy-4-{[4-(trifluoromethyl)pyridin-2-yl]carbamoyl}phenyl)imidazo [1,5-a]pyrazin-3-yl]cyclohexane-carboxylic acid] | 8.80 |
| Nc1nccn2c([C@@H]3CCC[C@H](C(=O)O)C3)nc(-c3ccc(C(=O)Nc4cc(OC5CC5)ccn4)cc3)c12 [Example 12, (1S,3R)-3-[8-amino-1-(4-{[4-(cyclopropyloxy)pyridin-2-yl]carbamoyl}phenyl)imidazo [1,5-a]pyrazin-3-yl]cyclohexane-carboxylic acid] | 8.77 |
| Nc1nccn2c([C@H]3CCC[C@@H](C(=O)O)C3)nc(-c3ccc(C(=O)Nc4cc(C5CC5)ccn4)cc3)c12 [Example 4, (1R,3S)-3-(8-amino-1-{4-[(4-cyclopropyl-pyridin-2-yl)carbamoyl]phenyl}imidazo [1,5-a]pyrazin-3-yl)cyclohexane-carboxylic acid] | 7.53 |
